In ChEMBL document CHEMBL1145001, “Angiotensin II AT1 receptor antagonists. Clinical implications of active metabolites” (J Med Chem, 2003):

Tests used:
[1] = Renal clearance value was evaluated; assay type: ADME, organism-based, Kidney; conditions: in vivo
[2] = Half life of compound was determined; assay type: ADME
[3] = biological target: T1, Type-1 angiotensin II receptor (Homo sapiens) (UniProt P30556); experiment: Inhibition against Angiotensin II receptor, type 1
T1 sequence (whole entry): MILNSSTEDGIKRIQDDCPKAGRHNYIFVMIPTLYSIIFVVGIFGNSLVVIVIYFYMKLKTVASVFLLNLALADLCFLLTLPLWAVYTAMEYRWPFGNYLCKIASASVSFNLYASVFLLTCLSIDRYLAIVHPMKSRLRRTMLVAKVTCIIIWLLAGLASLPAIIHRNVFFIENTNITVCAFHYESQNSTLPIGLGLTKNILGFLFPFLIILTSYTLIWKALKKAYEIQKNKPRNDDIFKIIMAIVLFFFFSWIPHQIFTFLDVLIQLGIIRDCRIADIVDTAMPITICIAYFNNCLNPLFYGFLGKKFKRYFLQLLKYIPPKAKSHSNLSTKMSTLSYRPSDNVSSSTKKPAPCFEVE

[4] = Total clearance value was evaluated; assay type: ADME, organism-based; conditions: in vivo
[5] = Acid dissociation value was evaluated; assay type: ADME
[6] = biological target: T1, Type-1 angiotensin II receptor (Homo sapiens); experiment: Relative binding affinity of compound to Angiotensin II receptor, type 1 was determined
[7] = Absolute bioavailability of compound was determined; assay type: ADME, organism-based; conditions: in vivo; read-out: Bioavailabiility
[8] = Effective concentration of compound to stimulate 300% increase of growth hormone secretion; assay type: functional
[9] = biological target: T2, Type-1 angiotensin II receptor (Homo sapiens, UniProt P30556); experiment: Compound was tested for inhibition against Angiotensin II receptor, type 1
T2 sequence (P30556 whole entry): T1 sequence (whole entry)

Phosphodiesterase 4 = Phosphodiesterase 4 (Homo sapiens, UniProt P27815+Q08499+Q07343+Q08493); experiment: Inhibition of phosphodiesterase 4 (PDE 4); assay type: protein assay
Phosphodiesterase 3 = Phosphodiesterase 3 (Homo sapiens, UniProt Q14432+Q13370); experiment: Inhibition of phosphodiesterase 3(PDE 3); assay type: protein assay
[10] = biological target: T2, Type-1 angiotensin II receptor; experiment: Inhibition constant against Angiotensin II receptor, type 1 was determined
[11] = Inhibition of bovine cAMP phosphodiesterase; parameters: species or system Bos taurus
[12] = Acid dissociation constant was evaluated; assay type: ADME
[13] = Inhibition of Phosphodiesterase 4
[14] = Inhibition of calcium calmodulin-dependent cGMP-Phosphodiesterase 1

SMILES	CL_renal [1] [mL/s]	half-life [2] [h]	AT1 affinity [3] [nM l-1]	CLtotal [4] [mL/s]	pKa [5]	Relative binding affinity [6]	other results
CCOc1nc2cccc(C(=O)O)c2n1Cc1ccc(-c2ccccc2-c2nnn[nH]2)cc1	> 7	> 9	0.1	1	3.9	1	–
CCCc1nc2c(C)cc(-c3nc4ccccc4n3C)cc2n1Cc1ccc(-c2ccccc2C(=O)O)cc1	< 5	> 20	1	19	4.5	10	bioavailability [7]: 43%
CCCCC(=O)N(Cc1ccc(-c2ccccc2-c2nnn[nH]2)cc1)[C@H](C(=O)O)C(C)C	4.8	6.1	1.4	37	3.1	–	–
CNC(=O)NCc1ccccc1-c1ccc(CN2C(=O)[C@H](NC(=O)CC(C)(C)N)CCc3ccccc32)cc1	–	–	–	–	–	–	EC50 [8]: 3 nM
CC(C)(N)CC(=O)N[C@@H]1CCc2ccccc2N(Cc2ccc(-c3ccccc3-c3nn[nH]n3)cc2)C1=O	–	–	–	–	–	–	EC50 [8]: 3 nM
Cc1nc(C(=O)O)nc2c1CCC(=O)N2Cc1ccc(-c2ccccc2-c2nnn[nH]2)cc1	–	–	–	–	–	–	IC50 [9]: 11 nM
CCCCc1nc(SCc2ccc(-c3ccccc3-c3nn[nH]n3)cc2)c2ccccc2n1	–	–	–	–	–	–	IC50 (Phosphodiesterase 4): 2900 nM; IC50 (Phosphodiesterase 3): 8000 nM
O=C(O)c1nc(CO)nc2c1CCC(=O)N2Cc1ccc(-c2ccccc2-c2nn[nH]n2)cc1	–	–	–	–	–	–	IC50 [9]: 44 nM
CC(O)CCC(=O)N(c1ccc(-c2ccccc2-c2nnn[nH]2)cc1)[C@H](C(=O)O)C(C)C (stereo partly drawn)	–	–	–	–	–	–	IC50 [9]: 470 nM; Ki [10]: 370 nM
CCOc1nc2cccc(C(=O)OC(C)OC(=O)OC3CCCCC3)c2n1Cc1ccc(-c2ccccc2-c2nn[nH]n2)cc1 (stereo not drawn)	–	–	–	–	–	–	AT1 affinity [6]: 280
Cc1nc(C)c2c(O)cc(=O)n(Cc3ccc(-c4ccccc4-c4nnn[nH]4)cc3)c2n1 [ENOLTASOSARTAN]	–	–	–	–	–	–	IC50 [9]: 0.17 nM; pKa [12]: 9.4
CCCCc1ncc(/C=C(\Cc2cccs2)C(=O)O)n1Cc1ccc(C(=O)O)cc1 [EPROSARTAN]	0.6	5	1.5	2.5	4	100	–
Cc1nc(C)c2c(n1)N(Cc1ccc(-c3ccccc3-c3nnn[nH]3)cc1)C(=O)CC2 [TASOSARTAN]	–	11	1.2	–	4	20	IC50 [9]: 32 nM

The next lines start with results.

CL_renal [1] [mL/s]	half-life [2] [h]	AT1 affinity [3] [nM l-1]	CLtotal [4] [mL/s]	pKa [5]	Relative binding affinity [6]	SMILES	other results
–	–	20	–	4	–	CCCCc1nc(Cl)c(C=O)n1Cc1ccc(-c2ccccc2-c2nn[nH]n2)cc1	–
0.4	4.4	1.3	0.78	2.8	10	CCCCc1nc(Cl)c(C(=O)O)n1Cc1ccc(-c2ccccc2-c2nn[nH]n2)cc1 [CARBOXYLIC ACID METABOLITE]	IC50 [11]: 38900 nM
0.02	10	1.3	5.1	4.7	–	CCCCC1=NC2(CCCC2)C(=O)N1Cc1ccc(-c2ccccc2-c2nnn[nH]2)cc1 [IRBESARTAN]	–
–	–	–	–	4.9	–	CCCCc1nc(Cl)c(CO)n1Cc1ccc(-c2ccccc2-c2nn[nH]n2)cc1 [LOSARTAN POTASSIUM]	–
1.1	1.5	6.4	10	–	50	CCCCc1nc(Cl)c(CO)n1Cc1ccc(-c2ccccc2-c2nnn[n-]2)cc1.[K+] [LOSARTAN POTASSIUM]	IC50 [13]: 26000 nM; IC50 [14]: 100000 nM; IC50 [11]: 139000 nM
